Experimental data as given in publication PMC10382584, “Macrocyclization of linear molecules by deep learning to facilitate macrocyclic drug candidates discovery” (Nature Communications, 2023).

Legend:
Assay in all cases: biochemical
Parameters in all cases: DiscoveRx KINOMEscan competition binding, percent of DMSO control signal at 100 nM
Details in all cases: read-out: Fig. 4a / Percent Control / Compound 1; percent of DMSO control, competition binding
AURKC = AURKC (Homo sapiens, UniProt Q9UQB9)
BMX = BMX (Homo sapiens, UniProt P51813)
CDK4-cyclinD1 = target: T1, CDK4-cyclinD1 (Homo sapiens, UniProt P11802)
T1 construct: cyclinD1

CLK1 = CLK1 (Homo sapiens, UniProt P49759)
CSNK1G1 = CSNK1G1 (Homo sapiens, UniProt Q9HCP0)
DRAK1 = target: T2, DRAK1 (Homo sapiens, UniProt Q9UEE5)
T2 construct: gene STK17A

EPHA2 = EPHA2 (Homo sapiens, UniProt P29317)
EPHA5 = EPHA5 (Homo sapiens, UniProt P54756)
FLT3(D835V) = FLT3(D835V) (Homo sapiens, UniProt P36888, D835V)
GRK1 = GRK1 (Homo sapiens, UniProt Q15835)
LCK = LCK (Homo sapiens, UniProt P06239)
MRCKB = target: T3, MRCKB (Homo sapiens, UniProt Q9Y5S2)
T3 construct: gene CDC42BPB

MYO3B = MYO3B (Homo sapiens, UniProt Q8WXR4)
PAK7 = target: T4, PAK7 (Homo sapiens, UniProt Q9P286)
T4 construct: gene PAK5

PIK3CA(H1047L) = PIK3CA(H1047L) (Homo sapiens, UniProt P42336, H1047L)
PIKFYVE = PIKFYVE (Homo sapiens, UniProt Q9Y2I7)
PIP5K1A = PIP5K1A (Homo sapiens, UniProt Q99755)
PIP5K2B = target: T5, PIP5K2B (Homo sapiens, UniProt P78356)
T5 construct: gene PIP4K2B

PRKCQ = PRKCQ (Homo sapiens, UniProt Q04759)
RIOK1 = RIOK1 (Homo sapiens, UniProt Q9BRS2)
RIPK1 = RIPK1 (Homo sapiens, UniProt Q13546)
RIPK5 = target: T6, RIPK5 (Homo sapiens, UniProt Q6XUX3)
T6 construct: gene DSTYK

[1] = target: T7, RSK4(Kin.Dom.1-N-terminal) (Homo sapiens, UniProt Q9UK32)
T7 construct: gene RPS6KA6; Kin.Dom.1-N-terminal

STK35 = STK35 (Homo sapiens, UniProt Q8TDR2)
ULK3 = ULK3 (Homo sapiens, UniProt Q6PHR2)
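Also: KINOMEscan kinase panel binding assay, signal normalized between DMSO as 100% and a positive control compound as 0%.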

T6 sequence (Q6XUX3 whole entry): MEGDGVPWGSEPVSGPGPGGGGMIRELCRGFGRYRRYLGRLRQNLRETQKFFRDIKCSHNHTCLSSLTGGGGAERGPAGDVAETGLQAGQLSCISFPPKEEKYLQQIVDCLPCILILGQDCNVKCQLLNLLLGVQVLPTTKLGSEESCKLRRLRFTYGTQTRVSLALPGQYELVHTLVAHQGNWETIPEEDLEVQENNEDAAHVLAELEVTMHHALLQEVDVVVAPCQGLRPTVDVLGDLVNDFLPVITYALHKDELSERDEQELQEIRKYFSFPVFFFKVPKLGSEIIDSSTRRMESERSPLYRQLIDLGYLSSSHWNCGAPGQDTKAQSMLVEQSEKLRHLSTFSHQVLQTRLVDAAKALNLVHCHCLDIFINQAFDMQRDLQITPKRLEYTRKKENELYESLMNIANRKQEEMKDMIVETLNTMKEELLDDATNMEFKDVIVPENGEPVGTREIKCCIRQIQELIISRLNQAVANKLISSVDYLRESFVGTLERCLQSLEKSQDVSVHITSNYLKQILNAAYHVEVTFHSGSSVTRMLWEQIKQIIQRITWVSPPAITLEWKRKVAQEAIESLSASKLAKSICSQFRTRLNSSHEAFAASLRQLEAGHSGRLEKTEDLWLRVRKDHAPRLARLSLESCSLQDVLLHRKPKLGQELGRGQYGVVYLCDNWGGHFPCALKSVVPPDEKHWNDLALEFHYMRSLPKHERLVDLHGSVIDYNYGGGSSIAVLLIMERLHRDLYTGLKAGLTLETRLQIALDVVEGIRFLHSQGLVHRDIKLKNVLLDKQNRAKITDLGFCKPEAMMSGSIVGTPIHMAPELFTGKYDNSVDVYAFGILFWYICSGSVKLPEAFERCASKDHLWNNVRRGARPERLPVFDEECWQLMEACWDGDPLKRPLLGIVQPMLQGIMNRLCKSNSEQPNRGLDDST
T2 sequence (Q9UEE5 whole entry): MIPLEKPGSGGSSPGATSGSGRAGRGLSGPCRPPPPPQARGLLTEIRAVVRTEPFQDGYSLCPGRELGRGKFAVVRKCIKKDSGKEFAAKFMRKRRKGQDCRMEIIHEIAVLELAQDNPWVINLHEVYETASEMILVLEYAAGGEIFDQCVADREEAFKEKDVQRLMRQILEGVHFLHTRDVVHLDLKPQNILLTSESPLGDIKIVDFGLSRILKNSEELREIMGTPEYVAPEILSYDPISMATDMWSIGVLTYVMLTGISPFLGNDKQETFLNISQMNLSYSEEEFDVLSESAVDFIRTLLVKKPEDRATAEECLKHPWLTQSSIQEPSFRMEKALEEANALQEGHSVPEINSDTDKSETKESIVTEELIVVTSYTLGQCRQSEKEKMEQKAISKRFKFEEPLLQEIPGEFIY
Sequence of STK35 (Q8TDR2 whole entry): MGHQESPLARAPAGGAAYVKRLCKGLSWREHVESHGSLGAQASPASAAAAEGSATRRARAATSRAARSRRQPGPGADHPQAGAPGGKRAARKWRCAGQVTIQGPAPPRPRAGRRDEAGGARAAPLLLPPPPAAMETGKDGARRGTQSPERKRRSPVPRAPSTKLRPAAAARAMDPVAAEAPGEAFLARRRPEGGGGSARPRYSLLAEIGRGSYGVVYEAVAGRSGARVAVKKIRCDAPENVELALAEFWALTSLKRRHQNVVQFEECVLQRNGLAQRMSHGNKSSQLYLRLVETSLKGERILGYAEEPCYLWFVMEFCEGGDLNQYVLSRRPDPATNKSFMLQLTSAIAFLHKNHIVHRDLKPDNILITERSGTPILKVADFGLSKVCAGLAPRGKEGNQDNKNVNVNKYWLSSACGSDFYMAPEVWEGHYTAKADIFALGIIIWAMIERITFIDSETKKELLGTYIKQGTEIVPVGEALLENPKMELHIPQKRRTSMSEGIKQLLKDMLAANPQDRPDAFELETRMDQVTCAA
Sequence of MYO3B (Q8WXR4 whole entry): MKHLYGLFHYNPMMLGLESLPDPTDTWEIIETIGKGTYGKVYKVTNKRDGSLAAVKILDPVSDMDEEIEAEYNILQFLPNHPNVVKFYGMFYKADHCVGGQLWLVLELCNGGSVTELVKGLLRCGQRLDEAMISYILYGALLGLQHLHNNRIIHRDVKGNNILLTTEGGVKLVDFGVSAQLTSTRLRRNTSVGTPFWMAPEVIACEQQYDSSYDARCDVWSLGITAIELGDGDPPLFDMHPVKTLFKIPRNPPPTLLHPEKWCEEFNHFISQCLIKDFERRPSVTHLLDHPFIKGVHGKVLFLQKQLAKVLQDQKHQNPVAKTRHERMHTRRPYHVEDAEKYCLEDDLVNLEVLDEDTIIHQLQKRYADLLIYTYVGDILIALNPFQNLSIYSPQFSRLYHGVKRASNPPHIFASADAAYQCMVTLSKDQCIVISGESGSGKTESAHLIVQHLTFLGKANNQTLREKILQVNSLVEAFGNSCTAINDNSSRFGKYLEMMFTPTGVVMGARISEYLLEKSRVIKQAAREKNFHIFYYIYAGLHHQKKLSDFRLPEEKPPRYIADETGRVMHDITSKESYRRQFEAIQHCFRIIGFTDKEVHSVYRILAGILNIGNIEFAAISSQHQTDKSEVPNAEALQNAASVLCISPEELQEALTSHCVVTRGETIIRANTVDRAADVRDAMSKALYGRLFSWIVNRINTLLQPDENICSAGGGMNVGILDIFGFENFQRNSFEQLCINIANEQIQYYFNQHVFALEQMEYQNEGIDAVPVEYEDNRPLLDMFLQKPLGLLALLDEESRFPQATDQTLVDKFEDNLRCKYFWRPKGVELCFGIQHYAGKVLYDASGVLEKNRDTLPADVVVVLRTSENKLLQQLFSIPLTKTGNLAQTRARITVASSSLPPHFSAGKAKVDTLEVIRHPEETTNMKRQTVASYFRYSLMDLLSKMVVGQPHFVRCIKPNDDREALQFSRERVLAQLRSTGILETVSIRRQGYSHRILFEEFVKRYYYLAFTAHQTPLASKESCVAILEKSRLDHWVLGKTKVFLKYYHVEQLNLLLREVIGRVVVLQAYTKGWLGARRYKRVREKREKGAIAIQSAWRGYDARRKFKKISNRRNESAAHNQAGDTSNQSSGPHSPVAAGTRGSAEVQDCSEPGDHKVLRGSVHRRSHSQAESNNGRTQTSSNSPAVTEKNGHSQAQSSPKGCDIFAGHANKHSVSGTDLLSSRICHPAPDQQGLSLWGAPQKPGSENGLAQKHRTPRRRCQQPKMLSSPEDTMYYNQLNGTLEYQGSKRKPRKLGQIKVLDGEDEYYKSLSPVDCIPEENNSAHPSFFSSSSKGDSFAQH
Sequence of EPHA5 (P54756 whole entry): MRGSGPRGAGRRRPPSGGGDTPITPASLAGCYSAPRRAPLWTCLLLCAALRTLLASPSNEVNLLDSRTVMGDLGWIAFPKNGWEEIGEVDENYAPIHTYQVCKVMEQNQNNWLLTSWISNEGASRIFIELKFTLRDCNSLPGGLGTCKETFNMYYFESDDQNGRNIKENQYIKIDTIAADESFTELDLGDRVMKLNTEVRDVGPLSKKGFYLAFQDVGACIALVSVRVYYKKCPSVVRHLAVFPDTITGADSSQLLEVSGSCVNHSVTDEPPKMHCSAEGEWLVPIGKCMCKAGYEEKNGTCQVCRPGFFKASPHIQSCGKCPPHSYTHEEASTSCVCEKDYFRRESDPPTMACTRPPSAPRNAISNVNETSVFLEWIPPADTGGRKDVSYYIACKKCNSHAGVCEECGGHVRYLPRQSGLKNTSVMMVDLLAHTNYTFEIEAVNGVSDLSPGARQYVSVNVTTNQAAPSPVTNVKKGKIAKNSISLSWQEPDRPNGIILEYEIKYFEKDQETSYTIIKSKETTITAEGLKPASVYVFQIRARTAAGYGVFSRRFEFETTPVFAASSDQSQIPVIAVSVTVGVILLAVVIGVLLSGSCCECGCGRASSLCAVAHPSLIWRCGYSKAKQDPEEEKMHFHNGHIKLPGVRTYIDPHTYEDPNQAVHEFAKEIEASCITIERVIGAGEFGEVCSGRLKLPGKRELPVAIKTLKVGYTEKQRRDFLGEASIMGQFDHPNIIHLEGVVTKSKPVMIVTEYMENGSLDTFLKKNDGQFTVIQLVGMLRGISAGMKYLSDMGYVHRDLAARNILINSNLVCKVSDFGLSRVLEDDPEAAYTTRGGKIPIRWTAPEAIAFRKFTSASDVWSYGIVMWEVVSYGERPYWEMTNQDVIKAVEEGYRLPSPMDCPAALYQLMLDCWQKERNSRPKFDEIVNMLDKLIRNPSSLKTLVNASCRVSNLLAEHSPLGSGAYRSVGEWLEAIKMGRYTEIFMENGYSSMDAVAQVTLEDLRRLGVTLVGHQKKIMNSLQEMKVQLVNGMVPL
Sequence of PIP5K1A (Q99755 whole entry): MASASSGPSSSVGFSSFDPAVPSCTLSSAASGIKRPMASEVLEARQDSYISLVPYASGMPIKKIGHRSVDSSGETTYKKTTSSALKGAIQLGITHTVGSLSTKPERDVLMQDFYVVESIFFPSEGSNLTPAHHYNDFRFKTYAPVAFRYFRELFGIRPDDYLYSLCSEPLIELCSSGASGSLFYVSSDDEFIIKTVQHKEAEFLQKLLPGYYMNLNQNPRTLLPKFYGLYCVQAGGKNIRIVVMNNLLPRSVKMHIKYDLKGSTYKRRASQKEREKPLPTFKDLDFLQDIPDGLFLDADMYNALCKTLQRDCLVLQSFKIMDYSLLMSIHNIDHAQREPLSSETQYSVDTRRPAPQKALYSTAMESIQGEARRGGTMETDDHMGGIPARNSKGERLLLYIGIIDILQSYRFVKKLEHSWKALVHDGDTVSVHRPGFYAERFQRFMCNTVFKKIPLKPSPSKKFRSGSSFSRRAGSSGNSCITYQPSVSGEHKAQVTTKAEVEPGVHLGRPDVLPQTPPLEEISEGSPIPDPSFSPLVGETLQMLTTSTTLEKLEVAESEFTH

Cc1cnc2nc1Nc1cccc(c1)COCc1cc(ccc1OCCN1CCCC1)N2 [Compound 1]
remaining binding at 0.1 µM (AURKC): 100%
remaining binding at 0.1 µM (BMX): 93%
remaining binding at 0.1 µM (CDK4-cyclinD1): 76%
remaining binding at 0.1 µM (CLK1): 95%
remaining binding at 0.1 µM (CSNK1G1): 91%
remaining binding at 0.1 µM (DRAK1): 100%
remaining binding at 0.1 µM (EPHA2): 82%
remaining binding at 0.1 µM (EPHA5): 100%
remaining binding at 0.1 µM (FLT3(D835V)): 3.3%
remaining binding at 0.1 µM (GRK1): 77%
remaining binding at 0.1 µM (LCK): 72%
remaining binding at 0.1 µM (MRCKB): 96%
remaining binding at 0.1 µM (MYO3B): 99%
remaining binding at 0.1 µM (PAK7): 84%
remaining binding at 0.1 µM (PIK3CA(H1047L)): 74%
remaining binding at 0.1 µM (PIKFYVE): 100%
remaining binding at 0.1 µM (PIP5K1A): 49%
remaining binding at 0.1 µM (PIP5K2B): 96%
remaining binding at 0.1 µM (PRKCQ): 100%
remaining binding at 0.1 µM (RIOK1): 75%
remaining binding at 0.1 µM (RIPK1): 93%
remaining binding at 0.1 µM (RIPK5): 93%
remaining binding at 0.1 µM [1]: 64%
remaining binding at 0.1 µM (STK35): 92%
remaining binding at 0.1 µM (ULK3): 85%
